Measurements as given in article PMC4007695 (Cell reports, 2013).

Legend:
[1] = target: as-TOR2 (TOR2 kinase, analog-sensitive allele) (Saccharomyces cerevisiae, UniProt P32600, L2178A); experiment: in vitro kinase assay of purified TORC2 at […] ATP; type: biochemical
wt-TOR2 (TOR2 kinase) = wt-TOR2 (TOR2 kinase) (Saccharomyces cerevisiae, UniProt P32600); experiment: in vitro kinase assay of purified TORC2 at […] ATP; type: biochemical

With Cn1c(=O)n(-c2ccc(C(C)(C)C#N)cc2)c2c3cc(-c4cnc5ccccc5c4)ccc3ncc21 [BEZ235] the IC50 [1] was 50 nM and the IC50 (wt-TOR2 (TOR2 kinase)) was 111 nM.
